Ends that are not written are not given here.
Experiments:
in vitro [1] = type: cell-based; settings: mouse
Method: (§1) A cytotoxicity experiment was performed by a test method using a Cyto X™ cell viability assay kit (LPS SOLUTION). A 96-well cell culture plate was purchased from Corning, and mammalian cell lines were purchased from the American Type Culture Collection (ATCC). Also, the CytoX™ cell viability assay kit was purchased from LPS SOLUTION.
(§2) As an experimental method, stored frozen cells were thawed, cultured in a DMEM or RP 11640 medium supplemented with 10% FBS, and then sub-cultured at intervals of 2 to 3 days until a density of the cells reached 80 to 90%. For this experiment, the cells were detached by treating the cells with trypsin-EDTA, and then divided into wells of a 96-well plate so that the number of the cells amounted to 10,000 cells. Thereafter, the cells were cultured at 37° C. for 24 hours in a CO2 incubator. Each of the prepared peptides was diluted with DMSO to concentrations of 10, 1, 0.1, 0.01, and 0.001 mM, and then diluted at 1:100 by adding 1 μl of DMSO or each of the prepared peptides to each well. Then, the cells were cultured at 37° C. for 24 hours in a CO2 incubator. To measure cytotoxicity, 10 μl of each of the peptides prepared using the Cyto X™ cell viability assay kit (LPS SOLUTION) was added to each well. The cells were cultured at 37° C. for 1 to 4 hours in a CO2 incubator, and an optical density was measured at 450 nm using a microplate reader. Then, the measured optical density was calculated as a percentage of a value measured for DMSO, and a graph was plotted using GraphPad Prism 5. Then, an IC50 value was calculated. When each of the IC50 values of the four peptides in each cell line was greater than or equal to 10 μM, the peptides were judged to have no general cytotoxicity.

in vitro [2] = type: cell-based
Method: as §1, §2

CHO-K1 cell line = test: in vitro; type: cell-based
Method: as §1, §2

[3] = tested on: Listeria innocua MC2 KCTC 3658, Staphylococcus aureus ATCC 6538, Pseudomonas aeruginosa ATCC 27853, Salmonella ATCC 19430, Escherichia coli KCTC 1682; test: Minimal inhibitory concentration, standard broth microdilution method; type: cell-based; settings: five strains, 37° C., 12 hours
Method: An antimicrobial assay was performed by measuring a minimal inhibitory concentration (MIC) value using a standard broth microdilution method. The antimicrobial activity of each of the peptides was measured using two gram-positive bacteria (Listeria innocua MC2 KCTC 3658 and Staphylococcus aureus ATCC 6538) and three gram-negative bacteria (Pseudomonas aeruginosa ATCC 27853, Salmonella ATCC 19430, and Escherichia coli KCTC 1682). 50 μl of each of the five bacterial strains were prepared, mixed with 5 ml of 3.7% BHI, and then cultured overnight under conditions of 37° C. and 240 rpm. Thereafter, 50 μl of each of the cultured bacterial strains was mixed with 5 ml of 3.7% BHI, and cultured for 2 hours under conditions of 37° C. and 240 rpm. Each of the cultured bacterial strains was diluted with a 0.037% BHI solution to a concentration of 1×10^8 CFU/ml.
A dissolved synthetic peptide was diluted twofold, stepwise, with BHIB in a 96 well-plate. […] After the incubation, a change in optical density at 600 nm was measured using Microplate Reader Multiskan FC (Thermo Scientific, Waltham, Mass., USA), and a range of the MIC was set as the lowest concentration of a peptide in which the growth of bacteria starts to be inhibited. […]

[4] = at a concentration of 200 μM or less; cited from earlier work
[5] = tested on: gram-positive and gram-negative bacteria; settings: cited from earlier work

| Substance | IC50 at 24 h (in vitro [1]) | IC50 at 24 h (in vitro [2]; African green monkey) | IC50 at 24 h (in vitro [2]; Chinese hamster) | IC50 at 24 h (in vitro [2]; human) | IC50 at 24 h (in vitro [2]; mouse) | cytotoxicity compared with YK3 (CHO-K1 cell line) | antibacterial activity (MIC experiment, FIG. 2) [3] | hemolytic action [4] | growth inhibition / antimicrobial functionality [5] |
| --- | --- | --- | --- | --- | --- | --- | --- | --- | --- |
| H-NKVKEWIKYLKSLFK-OH [YK5, NKVKE WIKYL KSLFK] | > 100 µM | > 100 µM | 57 µM | > 100 µM | > 100 µM | lower cytotoxicity than the YK3 peptide | effective antibacterial activity against the five strains when used at a low concentration | – | – |
| NKVKEWIKYLKSKFK [YK8, NKVKE WIKYL KSKFK] | > 100 µM | > 100 µM | 71.9 µM | > 100 µM | > 100 µM | lower cytotoxicity than the YK3 peptide | – | – | – |
| NKVKEWIKYLKSLFS [YK3, NKVKE WIKYL KSLFS] | – | 99.1 µM | 56.2 µM | 94 µM | – | – | – | – | – |
| NKVKEWWKWLKKL [YK11, NKVKE WWKWL KKL] | 96.6 µM | 83.7 µM | 86.8 µM | > 100 µM | > 100 µM | lower cytotoxicity than the YK3 peptide | – | – | – |
| NTVKETIKYLKSLFSHAFEVVKT (NTVKETIKYLKSLFSHAFEVVKT; LPcin-1 (23mer)) [LPcin-I, wild-type lactophoricin from cow milk, 23 amino acid residues, carboxyl terminal 113 to 135 region of PP3] | – | – | – | – | – | – | – | does not have a hemolytic action | inhibits the growth of both gram-positive and gram-negative bacteria |

Reference: patent publication US10150795B2, “Peptide having antimicrobial activity against pathogens and antimicrobial peptide composition comprising the same” (Hankuk University of Foreign Studies Research & Business …, priority 2016, dated 2018)
